In PMC9785280, “Synthesis, Antiproliferative Evaluation and QSAR Analysis of Novel Halogen- and Amidino-Substituted Benzothiazoles and Benzimidazoles” (International Journal of Molecular Sciences, 2022):

Legend:
[1] = system: CaCo-2 (colon adenocarcinoma) cells; test: MTT antiproliferative assay, CaCo-2; type: cell-based, human; details: for IC50: Homo sapiens, Caco-2, 72 h, MTT, mean ± SD of three independent experiments; for SI (BJ) CaCo-2: SI = IC50 BJ / IC50 CaCo-2
Procedure: (§1) The growth inhibition activity was assessed according to the slightly modified procedure performed at the National Cancer Institute, Developmental Therapeutics Program.
(§2) Examined compounds were dissolved in DMSO (1 × 10^−2 M). The experiments were carried out on seven human tumor cell lines and two normal cell lines. The following cell lines were used: HeLa (human cervical adenocarcinoma; purchased from ATCC), CaCo-2 (human colorectal adenocarcinoma), HuT78 (T-cell lymphoma), THP-1 (acute monocytic leukemia), SW620 (colorectal adenocarcinoma, metastatic), MDA-MB-231 (human breast adenocarcinoma), HL60 (promyelocytic leukemia cell line), foreskin fibroblast cells (BJ) and MDCK1 (Madine–Darby canine kidney fibroblast like cells). MDCK1 cells were used between 24 and 26 passages.
(§3) Adherent cells were cultured in the Dulbecco’s modified Eagle medium—DMEM (Gibco, EU) supplemented with 10 % heat-inactivated fetal bovine serum (FBS, Gibco, EU), 2 mM glutamine, and 100 U/0.1 mg penicillin/streptomycin. Cells on suspension were cultured in RPMI 1640 (Gibco, EU) medium supplemented with 10 % FBS (Gibco, EU), 2 mM glutamine, 1 mM sodium pyruvate, 10 mM HEPES. Cells were grown in humidified atmosphere under the conditions of 37 °C/5% of CO2 gas in the CO2 incubator (IGO 150 CELLlife^TM, JOUAN, Thermo Fisher Scientific, Waltham, MA, USA). A erythrosin B (Sigma-Aldrich, St. Louis, MO, USA) dye exclusion method was used to assess cell viability before plating.
(§4) Adherent cells (HeLa, CaCo-2, MCF-7 and MDCK-1) were plated in 96-well flat bottom plates (Greiner, Frickenhausen, Austria) at a concentration of 2 × 10^4 cells/mL. Suspension cells (THP-1 and HuT78) were plated in 96-well microtiter plates (Sarstead, Newton, USA) at a concentration of 1 × 10^5 cells/mL. Twenty-four hours later, cells were treated with test agents in […] 10-fold dilutions ([…] to 10^−4 M) and incubated for further 72 h. Working dilutions were freshly prepared on the day of testing. The solvent was also tested for eventual inhibitory activity by adjusting its concentration to be the same as in working concentrations. After 72 h of incubation, the cell growth rate was evaluated by performing the MTT assay, which detects dehydrogenase activity in viable cells. For this purpose, upon completion of the incubation period, growth medium was discarded and 50 μL of MTT was added to each well at a concentration of 5 mg/mL. After four hours of incubation at 37 °C, water insoluble MTT-formazan crystals were dissolved in 150 μL of dimethyl-sulfoxide (DMSO) for adherent cells, and in 10 % SDS with 0.01 M/L HCl for cells grown in suspension. The absorbance (OD, optical density) was measured on a microplate reader (iMark, BIO RAD, Hercules, CA, USA) at 595 nm.
(§5) Percent of life cells was calculated as follows: % = OD (sample)–OD (background)/OD (control)–OD (background) × 100.
(§6) Optical density (OD) of background for adherent cells is the OD of MTT solution and DMSO; OD (background) for suspension cells is OD of the culture medium with MTT and 10% SDS with 0.01 M/L HCl; OD (control) is the OD of the cells growth without tested compounds.
Calculation of GI50 value curves and QC analysis is performed by using the Excel tools and GraphPadPrism software (La Jolla, CA), v. 5.03. Briefly, individual concentration effect curves are generated by plotting the logarithm of the concentration of tested compounds(X) vs. corresponding percent inhibition values (Y) using least squares fit. […] QC criteria parameters (Z0, S:B, R2, HillSlope) were checked for every GI50 curve.

[2] = system: HuT78 (T-cell lymphoma) cells; test: MTT antiproliferative assay, HuT78; type: cell-based, human; details: for IC50: Homo sapiens, HuT78, 72 h, 72 h, MTT, mean ± SD of three independent experiments; for SI (BJ) HuT78: SI = IC50 BJ / IC50 HuT78; for SI (MDCK) HuT78: SI = IC50 MDCK1 / IC50 HuT78
Procedure: as §1, §2, §3, §4, §5, §6
(§7) Calculation of GI50 value curves and QC analysis is performed by using the Excel tools and GraphPadPrism software (La Jolla, CA), v. 5.03. Briefly, individual concentration effect curves are generated by plotting the logarithm of the concentration of tested compounds(X) vs. corresponding percent inhibition values (Y) using least squares fit. The best fit GI50 values are calculated using Log (inhibitor) versus normalized response—Variable slope equation, where Y Ľ 100/(1 ţ 10 ((LogIC50 _ X) * HillSlope)). QC criteria parameters (Z0, S:B, R2, HillSlope) were checked for every GI50 curve.

[3] = system: HeLa (cervical adenocarcinoma) cells; test: MTT antiproliferative assay, HeLa; type: cell-based; details: Homo sapiens, 72 h, mean ± SD of three independent experiments
Procedure: as §1, §2, §3, §4, §5, §6, §7

human fibroblasts (BJ) = test: MTT antiproliferative assay, normal BJ fibroblasts; type: cell-based; details: Homo sapiens, Fibroblast, 72 h, MTT, mean ± SD of three independent experiments; normal cells
Procedure: as §1, §2, §3, §4, §5, §6, §7

[4] = system: MDCK1 (Madin–Darby canine kidney) cells; test: MTT antiproliferative assay, non-tumor MDCK1 cells; type: cell-based; details: Canis lupus familiaris, MDCK1, 72 h, mean ± SD of three independent experiments, normal cells
Procedure: as §1, §2, §3, §4, §5, §6, §7

| Compound | IC50 [1] [µM] | IC50 [2] [µM] | SI (BJ) HuT78 [2] | SI (MDCK) HuT78 [2] | IC50 [3] [µM] | IC50 (human fibroblasts (BJ)) [µM] | melting point [°C] | IC50 [4] [µM] | SI (BJ) CaCo-2 [1] | SI (MDCK) CaCo-2 ([1]; SI = IC50 MDCK1 / IC50 CaCo-2) |
| --- | --- | --- | --- | --- | --- | --- | --- | --- | --- | --- |
| Fc1ccc2nc(-c3ccc(OCc4cn(Cc5ccccc5)nn4)c(F)c3)sc2c1 [25b, 6-Fluoro-2-(3-fluoro-4-((1-benzyl-1H-1,2,3-triazol-4-yl)methoxy)phenyl)benzothiazole] | > 100 | 19.7 ± 10.6 | 5.07 | 2.6 | > 100 | > 100 | 205 to 208 | 51.3 ± 4.6 | – | – |
| COc1cc(-c2nc3ccccc3s2)ccc1OCc1ccccn1 [20c] | 89.2 ± 16.8 | 64.7 ± 11.3 | 1.55 | 1.33 | > 100 | > 100 | 110 to 115 | 85.9 ± 15.7 | 1.12 | – |
| Cl.Fc1cc(-c2nc3ccc(C4=NCCN4)cc3s2)ccc1OCc1cn(Cc2ccccc2)nn1 [37b, 2-(3-Fluoro-4-((1-benzyl-1H-1,2,3-triazol-4-yl)methoxy)phenyl)-6-(4,5-dihydro-1H-imidazol-2-yl)benzothiazole hydrochloride] | 6.1 ± 2.7 | 2.1 ± 0.2 | 2.52 | – | 4 ± 0.4 | 5.3 ± 2.9 | > 240 | 2.4 ± 0.3 | – | – |
| c1ccc(COc2ccc(-c3nc4ccccc4s3)cc2)nc1 [20a, 2-(4-(Pyridin-2-ylmethoxy)phenyl)benzothiazole] | > 100 | > 100 | – | – | > 100 | > 100 | 132 to 136 | 65.7 ± 11.8 | – | – |
| O=C(COc1ccc(-c2nc3ccc(F)cc3s2)cc1F)c1ccccc1 [16b, 6-Fluoro-2-(3-fluoro-4-(2-oxo-2-phenylethoxy)phenyl)benzothiazole] | 89.3 ± 15.8 | 69.8 ± 15.5 | 1.43 | – | > 100 | > 100 | 148 to 152 | 25.8 ± 9.4 | – | – |
| O=C(COc1ccc(-c2nc3ccccc3s2)cc1)c1ccccc1 [17a, 2-(4-(2-Oxo-2-phenylethoxy)phenyl)benzothiazole] | > 100 | > 100 | – | – | > 100 | > 100 | 150 to 155 | > 100 | – | – |
| COc1cc(-c2nc3ccc(Cl)cc3s2)ccc1OCC(=O)c1ccccc1 [15c, 6-Chloro-2-(3-methoxy-4-(2-oxo-2-phenylethoxy)phenyl)benzothiazole] | > 100 | > 100 | – | – | > 100 | > 100 | 163 to 166 | 79.3 ± 14.4 | – | – |
| Fc1cc(-c2nc3ccc(Cl)cc3s2)ccc1OCc1ccccn1 [18b] | > 100 | > 100 | – | – | > 100 | > 100 | 211 to 215 | 29.8 ± 17.7 | – | – |
| Fc1cc(-c2nc3ccccc3s2)ccc1OCc1ccccn1 [20b] | 28.7 ± 16.7 | > 100 | – | – | > 100 | > 100 | 136 to 142 | 94.2 ± 18.4 | 3.48 | 3.28 |
| Cl.O=C(COc1ccc(-c2nc3ccc(C4=NCCN4)cc3s2)cc1)c1ccccc1 [34a, 2-(4-(2-Oxo-2-phenylethoxy)phenyl)-6-(4,5-dihydro-1H-imidazol-2-yl)benzothiazole hydrochloride] | 4 ± 0.2 | 2.2 ± 0.3 | – | – | 3.4 ± 0.2 | 3.9 ± 0.3 | > 250 | 2.8 ± 0.3 | – | – |
| COc1cc(-c2nc3ccccc3s2)ccc1OCc1c[nH]nn1 [23c, 2-(3-Methoxy-4-((1H-1,2,3-triazol-4-yl)methoxy)phenyl)benzothiazole] | 96.4 ± 13.3 | 20 ± 8.7 | 5.0 | – | 45.7 ± 16.3 | > 100 | 177 to 180 | 29.5 ± 7.2 | – | – |
| COc1cc(-c2nc3ccc(Cl)cc3s2)ccc1OCc1c[nH]nn1 [21c, 6-Chloro-2-(3-methoxy-4-((1H-1,2,3-triazol-4-yl)methoxy)phenyl)benzothiazole] | > 100 | 24.3 ± 6.5 | 4.11 | 1.78 | > 100 | > 100 | 183 to 188 | 43.2 ± 12.4 | – | – |
| COc1cc(-c2nc3ccc(F)cc3s2)ccc1OCc1ccccn1 [19c] | > 100 | > 100 | – | – | > 100 | > 100 | 152 to 156 | 1.1 ± 0.2 | – | – |
| COc1cc(-c2nc3ccc(F)cc3s2)ccc1OCc1c[nH]nn1 [22c, 6-Fluoro-2-(3-methoxy-4-((1H-1,2,3-triazol-4-yl)methoxy)phenyl)benzothiazole] | > 100 | 38.1 ± 23.4 | 2.62 | – | > 100 | > 100 | 196 to 199 | 0.7 ± 0.3 | – | – |
| Fc1ccc2nc(-c3ccc(OCc4ccccn4)c(F)c3)sc2c1 [19b] | > 100 | > 100 | – | – | > 100 | > 100 | 190 to 195 | 16.3 ± 11.5 | – | – |
